ChEMBL document CHEMBL4028802, “DILIrank: the largest reference drug list ranked by the risk for developing drug-induced liver injury in humans” (Drug Discov Today, 2016)

How the values were obtained:
[1] = species on record: Homo sapiens; experiment: Liver toxicity in human assessed as induction of drug-induced liver injury by measuring verified drug-induced liver injury concern status
[2] = species on record: Homo sapiens; experiment: Liver toxicity in human assessed as induction of drug-induced liver injury by measuring severity class index
Wherever DILI severity class is given: key of the grades not given here.

SMILES | DILI_Concern [1] | DILI_severity_class [2]
CCOC(=O)C1(c2ccccc2)CCN(CCC(C#N)(c2ccccc2)c2ccccc2)CC1 [DIPHENOXYLATE] | No-Dili-Concern | 0
CCCCCCCCCC(=O)O[C@H]1CC[C@H]2[C@@H]3CCC4=CC(=O)CC[C@@H]4[C@H]3CC[C@]12C [NANDROLONE DECANOATE] | Most-Dili-Concern | 7
CCCCc1ncc(/C=C(\Cc2cccs2)C(=O)O)n1Cc1ccc(C(=O)O)cc1 [EPROSARTAN] | Ambiguous-Dili-Concern | 3
CN1CCc2cccc3c2[C@H]1Cc1ccc(O)c(O)c1-3 [APOMORPHINE] | No-Dili-Concern | 0
O=[N+]([O-])O[C@H]1CO[C@H]2[C@@H]1OC[C@H]2O[N+](=O)[O-] [ISOSORBIDE DINITRATE] | No-Dili-Concern | 0
CC1=C(/C=C/C(C)=C/C=C/C(C)=C/C(=O)O)C(C)(C)CCC1 [TRETINOIN] | Ambiguous-Dili-Concern | 3
NC(=O)c1cn(Cc2c(F)cccc2F)nn1 [RUFINAMIDE] | Ambiguous-Dili-Concern | 3
CC1=NN(c2ccc(C)c(C)c2)C(=O)/C1=N\Nc1cccc(-c2cccc(C(=O)O)c2)c1O.NCCO.NCCO [ELTROMBOPAG OLAMINE] | Most-Dili-Concern | 4
CC(N)Cc1ccccc1 (configuration not stated) [AMPHETAMINE] | Less-Dili-Concern | 0
Nc1nc(=O)[nH]cc1F [FLUCYTOSINE] | Ambiguous-Dili-Concern | 3
COc1ccc2c3c1O[C@H]1C[C@@H](O)C=C[C@@]31CCN(C)C2 [GALANTAMINE] | Ambiguous-Dili-Concern | 3
CCCN1C[C@H](CSC)C[C@@H]2c3cccc4[nH]cc(c34)C[C@H]21 [PERGOLIDE] | Ambiguous-Dili-Concern | 3
O=S(=O)(OC[C@H]1O[C@@H](O[C@]2(COS(=O)(=O)[O][Al]([OH])[OH])O[C@H](OS(=O)(=O)[O][Al]([OH])[OH])[C@@H](OS(=O)(=O)[O][Al]([OH])[OH])[C@@H]2OS(=O)(=O)[O][Al]([OH])[OH])[C@H](OS(=O)(=O)[O][Al]([OH])[OH])[C@@H](OS(=O)(=O)[O][Al]([OH])[OH])[C@@H]1OS(=O)(=O)[O][Al]([OH])[OH])[O][Al]([OH])[OH].[OH][Al]([OH])[OH].[OH][Al]([OH])[OH].[OH][Al]([OH])[OH].[OH][Al]([OH])[OH].[OH][Al]([OH])[OH].[OH][Al]([OH])[OH].[OH][Al]([OH])[OH].[OH][Al]([OH])[OH] | No-Dili-Concern | 0
O=C(O[C@H]1CN2CCC1CC2)N1CCc2ccccc2[C@@H]1c1ccccc1 [SOLIFENACIN] | Ambiguous-Dili-Concern | 3
CC(C)NCC(O)c1ccc(O)c(O)c1 (configuration not stated) [ISOPROTERENOL] | No-Dili-Concern | 0
CCCCCCCCCC(=O)OC1(c2ccc(Cl)cc2)CCN(CCCC(=O)c2ccc(F)cc2)CC1 [HALOPERIDOL DECANOATE] | Ambiguous-Dili-Concern | 3
CS(=O)(=O)O.C[C@H](N)C(=O)N[C@@H](C)C(=O)N[C@H]1[C@@H]2CN(c3nc4c(cc3F)c(=O)c(C(=O)O)cn4-c3ccc(F)cc3F)C[C@@H]21 [ALATROFLOXACIN MESYLATE] | Most-Dili-Concern | 8
Oc1ccc2c(c1)[C@@]13CCCC[C@@]1(O)[C@@H](C2)N(CC1CCC1)CC3 [BUTORPHANOL] | No-Dili-Concern | 0
CC(=O)O[C@H]1C[C@@H]2CC[C@@H]3[C@H](CC[C@@]4(C)[C@H]3C[C@H]([N+]3(C)CCCCC3)[C@@H]4OC(C)=O)[C@@]2(C)C[C@@H]1[N+]1(C)CCCCC1 [PANCURONIUM] | No-Dili-Concern | 0
Clc1ccc2c(c1)C(c1ccccc1)=NCc1nncn1-2 [ESTAZOLAM] | No-Dili-Concern | 0
O=C(O[C@@H]1C[C@@H]2C[C@H]3C[C@H](C1)N2CC3=O)c1c[nH]c2ccccc12 [DOLASETRON] | Ambiguous-Dili-Concern | 3
CC1(C)O[C@@H]2[C@@H](CO[C@@]3(COS(N)(=O)=O)OC(C)(C)O[C@@H]23)O1 [TOPIRAMATE] | Less-Dili-Concern | 3
COc1ccccc1OCC(O)CO (configuration not stated) [GUAIFENESIN] | No-Dili-Concern | 0

SMILES | DILI_Concern [1] | DILI_severity_class [2]
CC(=O)O[C@H]1C(=O)[C@@]2(C)[C@H]([C@H](OC(=O)c3ccccc3)[C@]3(O)C[C@H](OC(=O)[C@H](O)[C@@H](NC(=O)c4ccccc4)c4ccccc4)C(C)=C1C3(C)C)[C@]1(OC(C)=O)CO[C@@H]1C[C@@H]2O [PACLITAXEL] | Less-Dili-Concern | 4
O=C1C(O)=C([C@H]2CC[C@H](c3ccc(Cl)cc3)CC2)C(=O)c2ccccc21 [ATOVAQUONE] | Ambiguous-Dili-Concern | 8
CCN(CC)CCOC(=O)C1(C2CCCCC2)CCCCC1 [DICYCLOMINE] | No-Dili-Concern | 0
CC(C)Cc1ccc(C(C)C(=O)O)cc1 (configuration not stated) [IBUPROFEN] | Less-Dili-Concern | 3
c1cc(CN2CCCNCCNCCCNCC2)ccc1CN1CCCNCCNCCCNCC1 [PLERIXAFOR] | No-Dili-Concern | 0
C[C@@H](Cc1ccccc1)NC(=O)[C@@H](N)CCCCN [LISDEXAMFETAMINE] | Ambiguous-Dili-Concern | 3
O=C1NC(c2ccccc2)(c2ccccc2)C(=O)N1COP(=O)(O)O [FOSPHENYTOIN] | Most-Dili-Concern | 8
CCc1cccc2c3c([nH]c12)C(CC)(CC(=O)O)OCC3 (configuration not stated) [ETODOLAC] | Most-Dili-Concern | 8
O=C1CC2(CCCC2)CC(=O)N1CCCCN1CCN(c2ncccn2)CC1 [BUSPIRONE] | Ambiguous-Dili-Concern | 3
C[C@]12CC[C@@H]3c4ccc(O)cc4C[C@@H](CCCCCCCCC[S+]([O-])CCCC(F)(F)C(F)(F)F)[C@H]3[C@@H]1CC[C@@H]2O (some centres not stated) [FULVESTRANT] | Ambiguous-Dili-Concern | 7
C[C@H]1O[C@H](O[C@H]2[C@H](O)[C@@H](O)[C@@H](O[C@H]3[C@H](O)[C@@H](O)C(O)O[C@@H]3CO)O[C@@H]2CO)[C@H](O)[C@@H](O)[C@@H]1N[C@H]1C=C(CO)[C@@H](O)[C@H](O)[C@H]1O (some centres not stated) [ACARBOSE] | Most-Dili-Concern | 8
CC(=O)O[C@@]12CO[C@@H]1C[C@H](O)[C@@]1(C)C(=O)[C@H](O)C3=C(C)[C@@H](OC(=O)[C@H](O)[C@@H](NC(=O)OC(C)(C)C)c4ccccc4)C[C@@](O)([C@@H](OC(=O)c4ccccc4)[C@H]21)C3(C)C [DOCETAXEL ANHYDROUS] | Less-Dili-Concern | 3
CC(C)(C)NC(=O)[C@@H]1C[C@@H]2CCCC[C@@H]2CN1C[C@@H](O)[C@H](Cc1ccccc1)NC(=O)[C@H](CC(N)=O)NC(=O)c1ccc2ccccc2n1 | Less-Dili-Concern | 3
O=C(O)c1ccccc1-c1c2ccc(=O)cc-2oc2cc(O)ccc12 | No-Dili-Concern | 0
Cc1nnc2n1-c1ccc(Cl)cc1C(c1ccccc1Cl)=NC2 [TRIAZOLAM] | Ambiguous-Dili-Concern | 4
NC(=O)c1ncn([C@@H]2O[C@H](CO)[C@@H](O)[C@H]2O)n1 [RIBAVIRIN] | Ambiguous-Dili-Concern | 7
NCCS [CYSTEAMINE] | Ambiguous-Dili-Concern | 3
O=[N+]([O-])O[C@@H]1CO[C@H]2[C@@H]1OC[C@H]2O | Ambiguous-Dili-Concern | 3
CC1COc2c(N3CCN(C)CC3)c(F)cc3c(=O)c(C(=O)O)cn1c23 (configuration not stated) [OFLOXACIN] | Less-Dili-Concern | 3
COc1cc(Cc2cnc(N)nc2N)cc(OC)c1OC [TRIMETHOPRIM] | Less-Dili-Concern | 4
CC(C)[C@H]1CC[C@H](C(=O)N[C@H](Cc2ccccc2)C(=O)O)CC1 [NATEGLINIDE] | Ambiguous-Dili-Concern | 3
CO/N=C1\CN(c2nc3c(cc2F)c(=O)c(C(=O)O)cn3C2CC2)CC1CN (configuration not stated) [GEMIFLOXACIN] | Less-Dili-Concern | 3
CC(C)C[C@H](NC(=O)[C@H](Cc1ccccc1)NC(=O)c1cnccn1)B(O)O [BORTEZOMIB] | Most-Dili-Concern | 7
